Reference: US8592172B2, “Bioluminescent assays using cyanobenzothiazole compounds” (Promega Corporation, priority 2010, dated 2013)

Assays:
CYP1A2 = test: Non-lytic cell-based assay with human hepatocytes, compound 3019; details: non-lytic, 3 μM compound 3019, 1 hour
Method: Human cryopreserved hepatocytes (Celsis lot RTM) were thawed and seeded in hepatocyte culture medium in wells of a collagen-coated, 96-well culture plate at ˜70,000 cells per well and kept at 37° C. in standard cell culture incubator with 5% CO2. The cells were then treated for 48 hours with 100 μM omeprazole or vehicle control (0.1% dimethylsulfoxide) dissolved in hepatocytes culture medium (n═3 for each treatment, mean values and standard deviations are shown). […] 50 μl of the KH incubation buffer was then removed from each well and transferred to a well of a white, 96-well luminometer plate (Costar) where it was also combined with 50 μl of P450-Glo LDR containing 6.6 mM D-cysteine.

[1] = test system: CYP450 1A2 activity in human liver microsomes; test: Human liver microsome assay with compound 3019
Method: (§1) Equal volumes of P450-Glo LDR with 6.6 mM D-Cysteine was added into the CYP450 reactions.

[2] = biological target: Human recombinant CYP450 1A2 (Homo sapiens, UniProt P05177)
Method: as §1

UGT 1A8 = biological target: T1, UGT 1A8 (Homo sapiens, UniProt Q9HAW9); test: Recombinant UGT panel, substrate utilization; type: biochemical; details: 2 hour incubation at 37° C., recombinant Supersomes, background corrected
T1 construct: purchased BD Gentest; host or cells: insect cells (microsomes)
Method: (§2) During this incubation, the cysteine reacts with the cyanobenzathiozole substrate to yield a D-luciferin derivative. […] Therefore, activity of the UGT enzyme can be measured by analyzing the difference (lower or no output) in relative light units (RLU) of a sample in which glucuronidation occurs compared to a sample that was run under the same conditions with no added UDPGA cofactor.
(§3) In this example, a series of 12 recombinant UGTs expressed in insect microsomes (Supersomes™, BD Gentest™), as well as the control microsomes not expressing the UGT enzyme, were incubated with compound 3138, compound 3478, or compound 3165 as substrates, with or without the UDPGA co-factor.
(§4) After addition of a luciferin detection reagent (LDR) containing D-cysteine, both the substrate and the product were converted to D-luciferins (compound 3478 is already a luciferin derivative before addition of the LDR).
(§5) Reactions were assembled in a white, 96-well plate. Each well contained 20 μL of reaction mixture comprised of 100 mM TES, pH 7.5, 16 mM MgCl2, 50 μg/mL alamethicin (Sigma), 60 μM compound 3138 or compound 3478, and 0.4 mg/mL of control or recombinant UGT membranes. The reactions were initiated by addition of 20 μL of water or 8 mM triammonium UDPGA (Sigma) to each well. The plate was mixed, sealed, and incubated in a 37° C. water bath for 2 hours. After the incubation, 40 μL P450-Glo LDR (Promega) with 20 mM D-cysteine-HCl.H2O (Sigma) was added to each well, the plate was mixed and allowed to incubate at room temperature for 20 minutes. After the incubation was completed, the plate was read on a Veritas™ luminometer (Turner BioSystems, Inc.; Sunnyvale, Calif.).
(§6) For each isozyme, the bioluminescence from the replicates containing UDPGA were subtracted from the average bioluminescence of the replicates without UDPGA. The average Δ RLU value obtained and the standard deviation of the replicates were then divided by the average bioluminescence for samples without UDPGA to obtain the % utilization for each isozyme. The % utilization obtained from the control microsomes was then subtracted from each isozyme to give the background corrected utilization data for those isozymes.

UGT 1A10 = biological target: T2, UGT 1A10 (Homo sapiens, UniProt Q9HAW8); test: Recombinant UGT panel, substrate utilization; type: biochemical; details: 2 hour incubation at 37° C., recombinant Supersomes, background corrected
T2 construct: purchased BD Gentest; host or cells: insect cells (microsomes)
Method: as §2, §3, §4, §5, §6

UGT 1A9 = biological target: T3, UGT 1A9 (Homo sapiens, UniProt O60656); test: Recombinant UGT panel, substrate utilization; type: biochemical; details: 2 hour incubation at 37° C., recombinant Supersomes, background corrected
T3 construct: purchased BD Gentest; host or cells: insect cells (microsomes)
T3 sequence (O60656 26-530): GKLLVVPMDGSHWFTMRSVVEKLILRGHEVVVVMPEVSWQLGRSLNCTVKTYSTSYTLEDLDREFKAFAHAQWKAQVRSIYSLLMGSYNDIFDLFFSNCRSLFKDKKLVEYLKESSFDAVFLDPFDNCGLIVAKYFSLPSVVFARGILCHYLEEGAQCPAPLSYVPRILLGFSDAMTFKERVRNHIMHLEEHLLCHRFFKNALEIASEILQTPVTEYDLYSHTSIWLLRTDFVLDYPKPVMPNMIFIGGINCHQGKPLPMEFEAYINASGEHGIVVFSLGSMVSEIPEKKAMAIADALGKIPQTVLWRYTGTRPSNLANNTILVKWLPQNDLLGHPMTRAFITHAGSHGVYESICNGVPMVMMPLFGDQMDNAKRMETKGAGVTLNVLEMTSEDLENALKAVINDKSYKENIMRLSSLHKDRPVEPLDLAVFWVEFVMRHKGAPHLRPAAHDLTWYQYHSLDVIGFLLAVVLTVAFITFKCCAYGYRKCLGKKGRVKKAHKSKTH
Method: as §2, §3, §4, §5, §6

UGT 2B15 = biological target: T4, UGT 2B15 (Homo sapiens, UniProt P54855); test: Recombinant UGT panel, substrate utilization; type: biochemical; details: 2 hour incubation at 37° C., recombinant Supersomes
T4 construct: purchased BD Gentest; host or cells: insect cells (microsomes)
Method: as §2, §3, §4, §5, §6

UGT 1A6 = biological target: T5, UGT 1A6 (Homo sapiens, UniProt P19224); test: Recombinant UGT panel, substrate utilization; type: biochemical; details: 2 hour incubation at 37° C., recombinant Supersomes
T5 construct: purchased BD Gentest; host or cells: insect cells (microsomes)
Method: as §2, §3, §4, §5, §6

UGT 1A1 = biological target: T6, UGT 1A1 (Homo sapiens, UniProt P22309); test: Recombinant UGT panel, substrate utilization; type: biochemical; details: 2 hour incubation at 37° C., recombinant Supersomes, background corrected
T6 construct: purchased BD Gentest; host or cells: insect cells (microsomes)
T6 sequence (P22309 26-533): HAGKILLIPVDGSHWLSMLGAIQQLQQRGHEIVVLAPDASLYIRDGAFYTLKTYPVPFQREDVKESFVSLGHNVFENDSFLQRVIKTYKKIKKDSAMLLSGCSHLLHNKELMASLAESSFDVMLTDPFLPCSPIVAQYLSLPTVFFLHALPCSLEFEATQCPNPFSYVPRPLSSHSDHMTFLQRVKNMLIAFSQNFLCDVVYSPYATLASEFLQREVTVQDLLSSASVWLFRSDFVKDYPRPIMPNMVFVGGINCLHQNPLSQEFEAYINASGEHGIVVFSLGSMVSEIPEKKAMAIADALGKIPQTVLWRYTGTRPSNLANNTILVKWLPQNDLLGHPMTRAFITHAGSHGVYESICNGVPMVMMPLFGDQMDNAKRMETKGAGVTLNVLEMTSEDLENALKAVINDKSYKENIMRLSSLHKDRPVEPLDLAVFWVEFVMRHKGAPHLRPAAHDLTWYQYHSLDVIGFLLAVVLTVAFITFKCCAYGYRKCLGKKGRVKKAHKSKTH
Method: as §2, §3, §4, §5, §6

UGT 1A4 = biological target: T7, UGT 1A4 (Homo sapiens, UniProt P22310); test: Recombinant UGT panel, substrate utilization; type: biochemical; details: 2 hour incubation at 37° C., recombinant Supersomes
T7 construct: purchased BD Gentest; host or cells: insect cells (microsomes)
T7 sequence (P22310 29-534): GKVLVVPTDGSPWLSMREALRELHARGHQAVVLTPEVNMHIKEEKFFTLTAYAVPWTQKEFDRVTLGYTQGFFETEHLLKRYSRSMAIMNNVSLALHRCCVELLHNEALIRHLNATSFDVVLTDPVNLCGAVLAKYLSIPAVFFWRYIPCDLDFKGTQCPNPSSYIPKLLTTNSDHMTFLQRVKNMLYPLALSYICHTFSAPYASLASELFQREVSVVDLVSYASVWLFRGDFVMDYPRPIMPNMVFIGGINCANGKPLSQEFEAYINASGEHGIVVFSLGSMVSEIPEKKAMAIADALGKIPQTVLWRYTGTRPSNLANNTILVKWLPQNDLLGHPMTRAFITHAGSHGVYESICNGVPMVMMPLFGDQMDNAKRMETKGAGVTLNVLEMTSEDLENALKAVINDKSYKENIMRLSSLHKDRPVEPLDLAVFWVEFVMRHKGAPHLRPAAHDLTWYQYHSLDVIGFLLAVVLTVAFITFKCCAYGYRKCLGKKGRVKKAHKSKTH
Method: as §2, §3, §4, §5, §6

UGT 2B4 = biological target: T8, UGT 2B4 (Homo sapiens, UniProt P06133); test: Recombinant UGT panel, substrate utilization; type: biochemical; details: 2 hour incubation at 37° C., recombinant Supersomes
T8 construct: purchased BD Gentest; host or cells: insect cells (microsomes)
Method: as §2, §3, §4, §5, §6

UGT 1A7 = biological target: T9, UGT 1A7 (Homo sapiens, UniProt Q9HAW7); test: Recombinant UGT panel, substrate utilization; type: biochemical; details: 2 hour incubation at 37° C., recombinant Supersomes
T9 construct: purchased BD Gentest; host or cells: insect cells (microsomes)
Method: as §2, §3, §4, §5, §6

UGT 2B17 = biological target: T10, UGT 2B17 (Homo sapiens, UniProt O75795); test: Recombinant UGT panel, substrate utilization; type: biochemical; details: 2 hour incubation at 37° C., recombinant Supersomes
T10 construct: purchased BD Gentest; host or cells: insect cells (microsomes)
Method: as §2, §3, §4, §5, §6

UGT 1A3 = biological target: T11, UGT 1A3 (Homo sapiens, UniProt P35503); test: Recombinant UGT panel, substrate utilization; type: biochemical; details: 2 hour incubation at 37° C., recombinant Supersomes
T11 construct: purchased BD Gentest; host or cells: insect cells (microsomes)
Method: as §2, §3, §4, §5, §6

UGT 2B7 = UGT 2B7 (Homo sapiens, UniProt P16662); test: Recombinant UGT panel, substrate utilization; type: biochemical; design: purchased BD Gentest; host or cells: insect cells (microsomes); details: 2 hour incubation at 37° C., recombinant Supersomes, background corrected
Method: as §2, §3, §4
Reactions were assembled in a white, 96-well plate. Each well contained 20 μL of reaction mixture comprised of 100 mM TES, pH 7.5, 16 mM MgCl2, 50 μg/mL alamethicin (Sigma), 60 μM compound 3138 or compound 3478, and 0.4 mg/mL of control or recombinant UGT membranes. The reactions were initiated by addition of 20 μL of water or 8 mM triammonium UDPGA (Sigma) to each well. […] After the incubation was completed, the plate was read on a Veritas™ luminometer (Turner BioSystems, Inc.; Sunnyvale, Calif.). […]

[3] = test system: UGT isozymes in human hepatocytes; details: compound 3138, 15-20 minutes at 37° C.
[4] = test system: endogenously expressed UGT isozymes in mammalian microsomes; test: Utilization of compound 3138 by mammalian tissue microsomes; type: biochemical; details: 50 μM compound 3138, 0.1 mg/mL mammalian microsomes, 15 minutes at 37° C.
Method: The ability of endogenously expressed UGT isozymes to utilize compounds 3138 and 3165 as substrates was determined in a similar manner to the assays with recombinant microsomes (Example 1). […] Tissue microsomes were obtained from Xenotech LLC or BD Gentest. Addition of P450-Glo LDR plus cysteine and data analysis was performed in the same manner as for the recombinant Supersome panel screen (Example 1 above).

T4 sequence (P54855 24-530): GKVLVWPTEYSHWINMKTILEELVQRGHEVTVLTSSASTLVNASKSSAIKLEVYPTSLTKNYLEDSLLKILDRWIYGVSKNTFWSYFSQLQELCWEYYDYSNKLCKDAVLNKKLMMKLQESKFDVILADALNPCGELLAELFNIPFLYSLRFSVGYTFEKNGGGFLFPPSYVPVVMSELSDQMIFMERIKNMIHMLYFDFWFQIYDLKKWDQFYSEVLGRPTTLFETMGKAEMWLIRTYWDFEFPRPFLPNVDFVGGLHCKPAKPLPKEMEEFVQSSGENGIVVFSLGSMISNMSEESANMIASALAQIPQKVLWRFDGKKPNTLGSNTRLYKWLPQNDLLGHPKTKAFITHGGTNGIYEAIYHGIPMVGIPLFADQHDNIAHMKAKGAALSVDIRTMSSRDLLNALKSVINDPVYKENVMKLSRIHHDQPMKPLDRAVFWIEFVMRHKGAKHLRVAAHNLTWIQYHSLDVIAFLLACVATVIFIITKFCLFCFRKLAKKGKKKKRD
T9 sequence (Q9HAW7 26-530): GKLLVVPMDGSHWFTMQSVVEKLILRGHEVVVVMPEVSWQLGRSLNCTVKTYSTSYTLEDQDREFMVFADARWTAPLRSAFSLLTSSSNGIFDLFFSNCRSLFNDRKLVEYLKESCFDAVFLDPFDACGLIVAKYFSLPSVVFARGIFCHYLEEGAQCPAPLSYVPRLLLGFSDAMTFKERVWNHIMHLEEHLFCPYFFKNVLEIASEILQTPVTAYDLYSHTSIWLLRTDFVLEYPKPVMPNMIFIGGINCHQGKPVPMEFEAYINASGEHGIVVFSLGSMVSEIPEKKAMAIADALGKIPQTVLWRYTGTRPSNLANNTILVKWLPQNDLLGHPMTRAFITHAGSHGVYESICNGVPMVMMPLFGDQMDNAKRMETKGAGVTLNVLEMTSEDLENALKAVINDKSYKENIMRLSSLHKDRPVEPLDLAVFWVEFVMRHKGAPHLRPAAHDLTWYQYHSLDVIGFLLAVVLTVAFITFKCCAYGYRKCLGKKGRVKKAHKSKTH
T10 sequence (O75795 24-530): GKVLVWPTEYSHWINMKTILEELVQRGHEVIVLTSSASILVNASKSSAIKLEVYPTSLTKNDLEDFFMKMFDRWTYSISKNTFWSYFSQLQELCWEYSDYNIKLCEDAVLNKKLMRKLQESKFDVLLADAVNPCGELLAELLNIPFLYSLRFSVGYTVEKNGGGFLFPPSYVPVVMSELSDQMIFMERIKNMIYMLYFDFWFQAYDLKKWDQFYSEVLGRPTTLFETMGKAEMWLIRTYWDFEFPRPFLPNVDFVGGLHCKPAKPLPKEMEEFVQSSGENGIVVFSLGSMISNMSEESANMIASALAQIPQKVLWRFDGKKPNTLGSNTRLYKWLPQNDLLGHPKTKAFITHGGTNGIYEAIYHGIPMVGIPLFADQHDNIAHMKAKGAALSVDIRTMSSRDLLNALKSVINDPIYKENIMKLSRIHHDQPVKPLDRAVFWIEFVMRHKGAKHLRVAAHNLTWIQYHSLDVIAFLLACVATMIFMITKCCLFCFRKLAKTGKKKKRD
T1 sequence (Q9HAW9 26-530): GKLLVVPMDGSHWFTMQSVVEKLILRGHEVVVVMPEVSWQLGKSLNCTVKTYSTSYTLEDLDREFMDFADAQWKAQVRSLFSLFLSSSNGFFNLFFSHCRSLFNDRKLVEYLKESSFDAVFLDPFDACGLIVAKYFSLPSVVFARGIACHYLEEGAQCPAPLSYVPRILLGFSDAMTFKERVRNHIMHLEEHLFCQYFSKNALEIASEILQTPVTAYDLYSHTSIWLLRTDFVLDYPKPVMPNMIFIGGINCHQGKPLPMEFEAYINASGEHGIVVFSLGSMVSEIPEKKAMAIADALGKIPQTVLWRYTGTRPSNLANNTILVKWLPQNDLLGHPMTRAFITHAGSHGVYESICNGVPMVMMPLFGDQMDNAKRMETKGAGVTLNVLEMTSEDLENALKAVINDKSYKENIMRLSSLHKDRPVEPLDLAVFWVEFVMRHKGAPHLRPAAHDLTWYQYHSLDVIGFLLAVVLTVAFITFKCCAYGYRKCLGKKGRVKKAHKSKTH
T5 sequence (P19224 27-532): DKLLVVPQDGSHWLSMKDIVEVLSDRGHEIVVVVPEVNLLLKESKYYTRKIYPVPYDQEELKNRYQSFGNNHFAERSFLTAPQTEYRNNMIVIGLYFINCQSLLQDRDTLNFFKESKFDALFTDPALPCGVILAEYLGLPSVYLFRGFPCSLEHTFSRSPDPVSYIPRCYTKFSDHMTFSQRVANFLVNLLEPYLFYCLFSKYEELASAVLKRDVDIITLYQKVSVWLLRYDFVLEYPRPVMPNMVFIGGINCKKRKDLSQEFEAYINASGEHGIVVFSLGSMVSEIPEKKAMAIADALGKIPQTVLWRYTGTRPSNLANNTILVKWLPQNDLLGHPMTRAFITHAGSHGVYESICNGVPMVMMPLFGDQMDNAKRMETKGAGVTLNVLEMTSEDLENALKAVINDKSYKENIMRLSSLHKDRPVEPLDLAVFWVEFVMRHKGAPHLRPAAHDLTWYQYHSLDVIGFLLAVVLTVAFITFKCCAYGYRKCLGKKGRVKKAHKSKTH
Chain of UGT 2B7 (P16662 24-529): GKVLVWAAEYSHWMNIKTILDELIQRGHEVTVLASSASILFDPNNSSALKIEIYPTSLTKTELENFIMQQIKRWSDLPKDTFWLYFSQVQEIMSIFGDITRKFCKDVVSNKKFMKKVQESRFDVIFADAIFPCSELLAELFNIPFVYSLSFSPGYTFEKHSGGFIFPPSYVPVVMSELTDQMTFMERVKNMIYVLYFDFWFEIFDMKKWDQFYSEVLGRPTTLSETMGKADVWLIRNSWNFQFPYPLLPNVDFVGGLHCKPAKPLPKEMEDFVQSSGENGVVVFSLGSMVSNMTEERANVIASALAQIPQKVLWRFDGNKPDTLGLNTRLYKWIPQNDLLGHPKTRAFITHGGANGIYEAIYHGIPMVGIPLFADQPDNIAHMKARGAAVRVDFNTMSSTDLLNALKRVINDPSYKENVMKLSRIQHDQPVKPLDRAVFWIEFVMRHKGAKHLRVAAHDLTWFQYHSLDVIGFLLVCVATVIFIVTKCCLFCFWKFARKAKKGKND
T11 sequence (P35503 29-534): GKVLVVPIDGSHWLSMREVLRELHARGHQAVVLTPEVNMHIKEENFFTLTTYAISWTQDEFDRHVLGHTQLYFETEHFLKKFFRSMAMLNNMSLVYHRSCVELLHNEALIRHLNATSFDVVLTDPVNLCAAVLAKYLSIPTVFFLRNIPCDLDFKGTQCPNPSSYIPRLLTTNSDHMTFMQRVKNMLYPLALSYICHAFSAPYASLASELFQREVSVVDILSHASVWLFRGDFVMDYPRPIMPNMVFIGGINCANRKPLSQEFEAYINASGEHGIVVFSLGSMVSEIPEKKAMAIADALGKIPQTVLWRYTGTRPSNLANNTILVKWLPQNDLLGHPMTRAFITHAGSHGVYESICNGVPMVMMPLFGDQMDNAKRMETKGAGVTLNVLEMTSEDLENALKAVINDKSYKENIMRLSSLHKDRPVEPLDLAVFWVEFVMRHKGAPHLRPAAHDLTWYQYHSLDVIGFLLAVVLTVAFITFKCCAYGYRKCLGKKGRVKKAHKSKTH
Chain of Human recombinant CYP450 1A2 (P05177 whole entry): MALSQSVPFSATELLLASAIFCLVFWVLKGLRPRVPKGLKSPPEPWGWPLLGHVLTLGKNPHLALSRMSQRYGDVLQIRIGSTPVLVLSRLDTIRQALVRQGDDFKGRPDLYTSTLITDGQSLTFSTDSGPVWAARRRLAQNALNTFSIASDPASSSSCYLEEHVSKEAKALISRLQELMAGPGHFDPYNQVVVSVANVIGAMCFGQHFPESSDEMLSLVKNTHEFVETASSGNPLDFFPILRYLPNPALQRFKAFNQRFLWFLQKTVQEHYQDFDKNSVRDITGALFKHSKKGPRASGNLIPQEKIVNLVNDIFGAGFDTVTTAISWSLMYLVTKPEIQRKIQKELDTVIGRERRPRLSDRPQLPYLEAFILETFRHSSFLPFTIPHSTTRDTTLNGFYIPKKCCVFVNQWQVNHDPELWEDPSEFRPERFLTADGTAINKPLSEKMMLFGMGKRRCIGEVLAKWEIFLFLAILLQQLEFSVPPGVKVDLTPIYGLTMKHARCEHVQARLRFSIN
T2 sequence (Q9HAW8 26-530): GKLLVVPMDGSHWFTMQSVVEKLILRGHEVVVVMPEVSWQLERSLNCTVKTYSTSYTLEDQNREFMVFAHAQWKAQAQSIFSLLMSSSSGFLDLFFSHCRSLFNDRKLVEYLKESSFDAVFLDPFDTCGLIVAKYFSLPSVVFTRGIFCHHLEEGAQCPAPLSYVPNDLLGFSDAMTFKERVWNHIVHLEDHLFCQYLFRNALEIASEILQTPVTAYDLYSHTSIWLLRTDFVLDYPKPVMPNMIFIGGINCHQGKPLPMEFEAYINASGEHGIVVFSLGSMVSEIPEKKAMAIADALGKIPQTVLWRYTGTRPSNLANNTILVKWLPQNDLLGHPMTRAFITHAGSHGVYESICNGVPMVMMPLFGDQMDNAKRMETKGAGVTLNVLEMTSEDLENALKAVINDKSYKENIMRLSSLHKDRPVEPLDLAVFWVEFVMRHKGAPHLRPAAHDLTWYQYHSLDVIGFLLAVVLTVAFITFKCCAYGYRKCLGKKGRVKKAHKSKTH

| SMILES | entry of substrate into cells (CYP1A2) | activity with compound 3019 in human liver microsomes [1] | substrate status for CYP450 1A2 [2] | % utilization of substrate by UGT 1A8 (UGT 1A8) | % utilization of substrate by UGT 1A10 (UGT 1A10) | % utilization of substrate by UGT 1A9 (UGT 1A9) | utilization of substrate by UGT 2B15 (UGT 2B15) | utilization of substrate by UGT 1A6 (UGT 1A6) | % utilization of substrate by UGT 1A1 (UGT 1A1) | utilization of substrate by UGT 1A4 (UGT 1A4) | utilization of substrate by UGT 2B4 (UGT 2B4) | utilization of substrate by UGT 1A7 (UGT 1A7) | utilization of substrate by UGT 2B17 (UGT 2B17) | utilization of substrate by UGT 1A3 (UGT 1A3) | % utilization of substrate by UGT 2B7 (UGT 2B7) | conversion of substrate by intact hepatocytes [3] | utilization by tissue microsomes compared with control 1A1 Supersomes [4] |
| --- | --- | --- | --- | --- | --- | --- | --- | --- | --- | --- | --- | --- | --- | --- | --- | --- | --- |
| CC(C)OC(OC(C)C)C1CSC(c2nc3ccc(O)cc3s2)=N1 (centres unmarked) [Compound 3019] | entered the cell | substantial activity | is indeed a CYP450 1A2 substrate | – | – | – | – | – | – | – | – | – | – | – | – | – | – |
| Cc1cc(O)cc2sc(C#N)nc12 [Compound 3138] | – | – | – | over 50% | over 50% | over 50% | detectable levels of utilization above background | detectable levels of utilization above background | over 50% | did not utilize either compound 3138 or 3478 to an appreciable extent | did not utilize either compound 3138 or 3478 to an appreciable extent | detectable levels of utilization above background | detectable levels of utilization above background | detectable levels of utilization above background | over 50% | Conversion of the PBI 3138 was seen | utilized much more of compound 3138 than the control 1A1 Supersomes |
